From paper PMC10747453, “Perturbations in Osteogenic Cell Fate Following Exposure to Constituents Present in Tobacco: A Combinatorial Study” (Toxics, 2023)
Entries after “also recorded” stand apart in the source; their conditions may differ. Where a name gives a salt, the structure may show the parent alone. Read-outs that look alike come from different tables or passages of the source.

Key:
[1] = tested on: osteogenically differentiating human embryonic stem cells and fibroblasts; assay: hESTo biostatistical prediction model (embryotoxicity class); conditions: for Embryotoxicity classification by the biostatistical model, in words: hESTo, skeletal differentiation
Text: (§1) Half-maximal inhibitory doses of cytotoxicity (IC50) and osteogenic differentiation (ID50) were taken from concentration–response curves generated in GraphPad Prism (9.2., GraphPad Software Inc., San Diego, CA, USA) with the “nonlinear regression” function). A biostatistical prediction model based on linear discriminant functions was employed to classify the test chemical into one out of three embryotoxicity categories (strong, weak, and non-embryotoxic). In double combination analyses, a t-test was performed comparing combination to single constituent ID50. For triple combination analyses, a one-way ANOVA with Dunnett’s multiple comparison test (single constituent vs. combination) using GraphPad Prism was conducted. A p-value below 0.05 was considered significant. Heatmaps for double and triple exposures were generated in GraphPad Prism 9.2. Calcium-to-MTT ratios were calculated in Microsoft Excel and imported to ClustVis to generate a principal-component-analysis-based clustered heatmap.
Half-maximal inhibitory concentrations for cell viability (IC50 hESC) and differentiation (ID50 Ca^2+ hESC) were established for penicillin G and all-trans retinoic acid from concentration–response curves. The hESTo then compares these two endpoints to the half-maximal inhibitory concentration for cell viability resulting from exposure of fibroblast cells to the same test compound (IC50 MTT hFF) (Figure 3).

[2] = tested on: osteogenically differentiating H9 hESCs; assay: hESTo calcium assay, osteogenic differentiation of hESCs; type: cell-based, human; conditions: for IC50: Homo sapiens, 480 h, read-out: ID50 Ca2+ hESC (half-maximal inhibitory concentration of differentiation)
Procedure: Differentiation was induced from hESC cultures through the addition of a control differentiation medium (CDM) composed of DMEM, 15% FBS (Atlanta Biologicals, Flowery Branch, GA, USA), 1% (v/v) non-essential amino acids, 50 U/mL penicillin, 50 µg/mL streptomycin, and 0.1 mM β-mercaptoethanol. Five days after this initial medium change, CDM was supplemented with 1.2 × 10^−7 M 1,25α(OH)2 vitamin D3 (Calbiochem, Burlington, MA, USA), 0.1 mM β-glycerophosphate, and 20.8 µg/mL ascorbic acid.
(§2) Cells were cultured with concomitant chemical treatment in a double-blind, vehicle-controlled study. […] 241571), and urethane (Sigma Aldrich, cat. no. U2500) were purchased from the indicated companies. Stock solutions were made in DMEM or dimethylsulfoxide, depending on chemical solubility, sonicated when necessary, sterile filtered (0.1 µm), and stored at −20 °C. For liquids, concentrations were calculated from their density. Final dilutions were made in appropriate cell culture medium upon additional sonication of the stock after thawing. Chemical cell treatment started on day 0 of culture/differentiation and continued through day 20 in both H9 hESCs and hFF cells. Medium, including chemical dilutions, were made fresh and changed every other day. All exposures were performed in biological triplicate, each containing technical quintuplicates.
Quantification of calcium in the extracellular matrix of the cultures was performed using a calcium assay normalized to protein content. First, cells were lysed with radio-immunoprecipitation buffer (1% NP40, 0.5% sodium deoxycholate, 0.1% sodium dodecyl sulfate in PBS) on day 20 of cellular differentiation. The remaining matrix was dissolved with 1 N HCl and collected. Both lysates were assayed with Arsenazo III (Genzyme), and absorbance was measured at 655 nm (iMark microplate reader; Bio-Rad Laboratories, Hercules, CA, USA). Absorbances were compared to a CaCl2 standard, and total calcium content was normalized to the total protein content of the sample determined by a Lowry assay, measured against a bovine serum albumin standard curve. The Lowry assay was read at 750 nm (iMark microplate reader; Bio-Rad Laboratories) after a 15 min micro-shake incubation. Calculation of final normalized calcium content was performed according to a previously published formula [33].
as §1

[3] = hESTo MTT assay, hESC viability; conditions: human
Procedure: (§3) Cells were cultured with concomitant chemical treatment in a double-blind, vehicle-controlled study. […] U2500) were purchased from the indicated companies. […] For liquids, concentrations were calculated from their density. Final dilutions were made in appropriate cell culture medium upon additional sonication of the stock after thawing. Chemical cell treatment started on day 0 of culture/differentiation and continued through day 20 in both H9 hESCs and hFF cells. Medium, including chemical dilutions, were made fresh and changed every other day. All exposures were performed in biological triplicate, each containing technical quintuplicates.
(§4) Viability response to constituent exposure was determined by 3-[4,5-dimethylthiazol-2yl]-2,5-diphenylterazolium bromide (MTT) assay. Cells were incubated with MTT (5 mg/mL) at 37 °C for 2 h. Following incubation, the supernatant was removed and replaced with 0.04 mol/L HCl in isopropanol. The plate was placed on a shaker for 15 min to dissolve aggregates. The optical density of the solution was read at 595 nm (iMark microplate reader; BioRad).
as §1

[4] = tested on: human foreskin fibroblasts (hFF-1); assay: hESTo MTT assay, fibroblast viability; conditions: for IC50: Homo sapiens, HFF-1, read-out: IC50 MTT hFF
Procedure: Human embryonic stem cells of the line H9 (WiCell) were seeded on Matrigel-coated culture plates and cultured in mTeSR1 medium (Stem Cell Technologies, Seattle, WA, USA) at 37 °C with 5% CO2. Approximately every four days, colonies were treated with accutase for 2–4 min at room temperature to dislodge colonies from the plastic and passaged into fresh Matrigel-coated wells. Human foreskin fibroblasts (hFF-1, American Type Culture Collection, Manassas, VA, USA, cat.no. SCRC-1041), were cultured on 0.1% gelatin-coated 6-well plates in Dulbecco’s Modified Eagle Medium (DMEM) with 10% fetal bovine serum, 1% (v/v) non-essential amino acids, 50 U/mL penicillin, and 50 µg/mL streptomycin at 37 °C in a controlled humidified 5% CO2 incubator. Upon 70% confluency, hFFs were passaged at a 1:6 ratio using phosphate-buffered saline (PBS) washes and 2.5% Trypsin/EDTA every two to four days. While in culture, all cells were routinely checked for bacterial, yeast, and microbial contamination using an inverted microscope and tested for mycoplasma using a PCR-based detection kit (abcam, Fremont, CA, USA, ab289834).
as §2, §4, §1

[5] = tested on: H9 hESCs; assay: hESTo MTT assay, hESC viability
Procedure: as §3, §4, §1

[6] = human
Procedure: (C) Table listing IC50 and ID50 values, calculated via GraphPad Prism and expressed as µg/mL, embryotoxicity classes calculated according to Genschow et al. [24], and content per cigarette (cig) or gram tobacco as well as actual and calculated plasma concentrations assuming a plasma volume of 3000 mL. […] ID50 = half-maximal inhibitory concentration of differentiation. IC50 = half-maximal concentration of cytotoxicity. hESC, human embryonic stem cell; hFF, human foreskin fibroblast; ND, not determined from the literature [37, 38, 39, 40, 41, 42, 43, 44, 45, 46, 47, 48, 49].

[7] = tested on: cultured rat embryos; design: method as in PMID 8079346; conditions: cited from earlier work
[8] = in vivo; cited from earlier work
[9] = tested on: other aquatic species; conditions: cited from earlier work
[10] = H9 hESC, exposure day 0 through day 20, calcium normalized to protein

| Compound | Embryotoxicity classification by the biostatistical model, in words [1] | IC50 at 20 days [3] | IC50 [4] | IC50 [2, 10] | other results |
| --- | --- | --- | --- | --- | --- |
| CC=O [Acetaldehyde] | strongly developmentally osteotoxic | – | – | – | – |
| C=CC=O [Acrolein, acrolein] | strongly developmentally osteotoxic | – | – | – | – |
| C=CC(N)=O [Acrylamide, acrylamide] | non-embryotoxic | – | – | – | Effect on H9 hESC differentiation potential / calcification, in words [2]: caused reductions in cell viability as well as calcification but in very high concentration ranges |
| CC1=C(/C=C/C(C)=C/C=C/C(C)=C/C(=O)O)C(C)(C)CCC1 [All-trans retinoic acid, all-trans retinoic acid, reference compound] | – | 0.036 µg/mL | 0.061 µg/mL | – | – |
| c1ccc2cc3c(ccc4ccccc43)cc2c1 [Benz[a]anthracene, benz[a]anthracene] | non-embryotoxic | – | – | – | IC50 MTT hESC (half-maximal concentration of cytotoxicity) ([5]; H9 hESC, exposure day 0 through day 20): 337.3 µg/mL; ID50 Ca2+ hESC (half-maximal inhibitory concentration of differentiation) [2, 10]: 239.5 µg/mL; Effect on hFF cell viability, in words ([4]; tested concentration range up to 1000 µg/mL): did not produce a change in cell viability |
| c1ccc2c(c1)cc1ccc3cccc4ccc2c1c34 [Benzo[a]pyrene, benzo[a]pyrene] | – | 52.9 ± 428 µg/mL | 1020 ± 653 µg/mL | 2.11 ± 0.65 µg/mL | Calculated plasma concentration [6]: 0.000036 µg/mL |
| c1ccc2c(c1)-c1cccc3c1c-2cc1ccccc13 [Benzo[b]fluoranthene, benzo[b]fluoranthene] | neither chemical classified as developmentally osteotoxic | 61 ± 14.8 µg/mL | 110 ± 76.1 µg/mL | 25.8 ± 7.24 µg/mL | – |
| Oc1ccccc1O [Catechol, catechol] | strongly embryotoxic; also recorded: strongly developmentally osteotoxic | 0.071 ± 0.023 µg/mL | 9.29 ± 1.71 µg/mL | – | hESC cytotoxicity endpoint relative to solvent control ([5]; around 0.882 µg/mL): below 25%; IC50 [2]: 0.258 ± 0.166 µg/mL; hESC differentiation endpoint relative to solvent control ([2]; around 0.882 µg/mL): below 25%; Half-maximal lethality [7]: 50 to 100 µM; Concentration above which hFF cell viability changed [4]: above 0.882 µg/mL |
| CN1C(=O)CC[C@H]1c1cccnc1 [Cotinine, cotinine] | non-embryotoxic | 341 ± 72.9 µg/mL | 497 ± 139 µg/mL | 272 ± 82.8 µg/mL | Approx. plasma concentration [8]: 0.068 to 0.3 µg/mL |
| O=c1ccc2ccccc2o1 [Coumarin, coumarin] | strongly developmentally osteotoxic | 0.013 µg/mL | 0.114 µg/mL | 0.024 ± 0.009 µg/mL | – |
| CN1CCC(c2cccnc2)C1 (stereo not drawn) [Isonicotine, isonicotine] | neither chemical classified as developmentally osteotoxic | – | – | – | – |
| CN1CCC[C@H]1c1cccnc1 [Nicotine, nicotine] | non-embryotoxic | > 1000 µg/mL | > 1000 µg/mL | 633 ± 2350 µg/mL | Effect on H9 hESC differentiation potential / calcification, in words ([2]; all tested concentration ranges): a decrease in calcification was seen in the higher concentrations |
| CC1(C)S[C@@H]2[C@H](NC(=O)Cc3ccccc3)C(=O)N2[C@H]1C(=O)O [Penicillin G, penicillin G sodium salt, reference compound] | – | > 1000 µg/mL | > 1000 µg/mL | – | Embryotoxicity class ([1]; biostatistical model of Genschow et al. from ID50 hESC, IC50 hESC, IC50 hFF): I |
| c1ccc2ncccc2c1 [Quinoline, quinoline] | weakly developmentally osteotoxic | 2.65 ± 0.51 µg/mL | 59.4 ± 19.1 µg/mL | 2.27 ± 0.76 µg/mL | Calculated plasma concentration [6]: 0.000045 µg/mL; Median lethal dose [9]: 11 µg/mL |
| CCOC(N)=O [Urethane, urethane] | non-embryotoxic | > 1000 µg/mL | > 1000 µg/mL | > 1000 µg/mL | – |
